Experimental findings from patent US7846964B2, “Thiophene derivatives as spingosine-1-phosphate-1 receptor agonists” (Actelion Pharmaceuticals Ltd., priority 2005, dated 2010) are described below.

For the assay, the target named is recombinant human S1P1 receptor (Homo sapiens, UniProt P21453). In words: GTPγS assay to determine EC50 values. It counts as biochemical. The conditions noted are these: 35S-GTPγS binding, membrane preparations of CHO cells expressing recombinant human S1P1 receptor. Here is the method:
The pH is 7.4. Test compounds are dissolved and diluted in 100% DMSO and pre-incubated at room temperature for 30 min in 150 μl of the above assay buffer, in the absence of ^35S-GTPγS. After addition of 50 μl of ^35S-GTPγS, the assay is incubated for 1 h at room temperature. […] Membrane-bound ^35S-GTPγS is measured with a TopCount from Packard Biosciences.
Specific binding is determined by subtracting non-specific binding from maximal binding. Maximal binding is the amount of cpm bound to the Multiscreen plate in the presence of 10 μM of S1P. Non-specific binding is the amount of binding in the absence of an agonist in the assay.
The EC50 values were determined according to the method described above.

Structures are written as SMILES.

recombinant human S1P1 receptor, sequence (P21453 whole entry): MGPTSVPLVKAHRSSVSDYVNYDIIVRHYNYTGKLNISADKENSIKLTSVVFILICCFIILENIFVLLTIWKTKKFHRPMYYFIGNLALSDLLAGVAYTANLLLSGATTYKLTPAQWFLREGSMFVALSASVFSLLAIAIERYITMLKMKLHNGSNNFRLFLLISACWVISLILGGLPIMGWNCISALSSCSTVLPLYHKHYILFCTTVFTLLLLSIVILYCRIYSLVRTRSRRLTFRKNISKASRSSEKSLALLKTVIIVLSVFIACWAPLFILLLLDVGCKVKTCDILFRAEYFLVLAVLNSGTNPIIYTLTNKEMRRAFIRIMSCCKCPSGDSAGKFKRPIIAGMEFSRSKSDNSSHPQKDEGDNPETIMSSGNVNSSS

Regarding `Cc1sc(C(=O)CCc2ccc(CC(O)CO)cc2)c2c1[C@H]1[C@@H](C2)C1(C)C` (stereo partly drawn) [Example 1, 3-[4-((2S/R)-2,3-dihydroxy-propyl)-phenyl]-1-((1aS,5aR)-1,1,2-trimethyl-1,1a,5,5a-tetrahydro-3-thia-cyclopropa[a]pentalen-4-yl)-propan-1-one], the EC50 stood at 12 nM.

As to `Cc1sc(C(=O)CCc2ccc(CCCN)cc2)c2c1[C@H]1[C@@H](C2)C1(C)C` [Example 2], the EC50 was 3 nM.

For the compound `Cc1sc(C(=O)CCc2ccc(CCC(N)=O)cc2)c2c1[C@H]1[C@@H](C2)C1(C)C` [Example 13], the EC50 was found to be 13 nM.

Turning to `Cc1sc(C(=O)CCc2ccc(C(=O)NCCN)cc2)c2c1[C@H]1[C@@H](C2)C1(C)C` [Example 31], the EC50 came out at 6 nM.

Turning to `Cc1cc(CCC(=O)c2sc(C)c3c2C[C@@H]2[C@H]3C2(C)C)ccc1OCCN(C)C` [Example 37], the 50% effective concentration (EC50) came to 58 nM.

Take `Cc1cc(CCC(=O)c2sc(C)c3c2CC2C3C2(C)C)ccc1OCC(O)CNCCC(=O)O` (stereo not drawn) [Example 48]: the EC50 came to 2 nM.

`Cc1sc(C(=O)CCc2ccc(OCC(O)CNCCC(=O)O)c(Cl)c2)c2c1C1C(C2)C1(C)C` (stereo not drawn) [Example 60]: the concentration giving a half-maximal response (EC50) came to 1.4 nM.

As to `Cc1cc(CCC(=O)c2sc(C)c3c2C[C@@H]2[C@H]3C2(C)C)cc(C)c1OCC(O)CN` (stereo partly drawn) [Example 99, 3-[4-(3-amino-2-hydroxy-propoxy)-3,5-dimethyl-phenyl]-1-((1aS,5aR)-1,1,2-trimethyl-1,1a,5,5a-tetrahydro-3-thia-cyclopropa[a]pentalen-4-yl)-propan-1-one], the EC50 amounted to 1.1 nM.

Consider `COc1cc(CCC(=O)c2sc(C)c3c2CC2C3C2(C)C)cc(Cl)c1OCCN1CCC(C(=O)O)C1` (stereo not drawn) [Example 149], for which the EC50 was 2 nM.

Turning to `COc1cc(CCC(=O)c2sc(C)c3c2CC2C3C2(C)C)cc(Cl)c1OCC(O)CN1CCNCC1` (stereo not drawn) [Example 175], the EC50 turned out to be 28 nM.

Take `COCC(O)COc1c(C)cc(CCC(=O)c2sc(C)c3c2C[C@@H]2[C@H]3C2(C)C)cc1C` (stereo partly drawn) [Example 233, 3-[4-(2-Hydroxy-3-methoxy-propoxy)-3,5-dimethyl-phenyl]-1-((1aS,5aR)-1,1,2-trimethyl-1,1a,5,5a-tetrahydro-3-thia-cyclopropa[a]pentalen-4-yl)-propan-1-one]: the concentration giving a half-maximal response (EC50) amounted to 2.3 nM.

Turning to `Cc1cc(CCC(=O)c2sc(C)c3c2C[C@@H]2[C@H]3C2(C)C)cc(C)c1OCC(O)CNC(=O)CN` (stereo partly drawn) [Example 234, 2-amino-N-(3-{2,6-dimethyl-4-[3-oxo-3-((1aS,5aR)-1,1,2-trimethyl-1,1a,5,5a-tetrahydro-3-thia-cyclopropa[a]pentalen-4-yl)-propyl]-phenoxy}-2-hydroxy-propyl)-acetamide], the EC50 was found to be 2.7 nM.

Turning to `Cc1cc(CCC(=O)c2sc(C)c3c2C[C@@H]2[C@H]3C2(C)C)cc(C)c1CCC(=O)NC(CO)CO` [Example 237, 3-{2,6-Dimethyl-4-[3-oxo-3-((1aS,5aR)-1,1,2-trimethyl-1,1a,5,5a-tetrahydro-3-thia-cyclopropa [a]pentalen-4-yl)-propyl]-phenyl}-N-(2-hydroxy-1-hydroxymethyl-ethyl)-propionamide], the 50% effective concentration (EC50) is 2.9 nM.

For `Cc1cc(CCC(=O)c2sc(C)c3c2C[C@@H]2[C@H]3C2(C)C)cc(C)c1CC(O)CO` (stereo partly drawn) [Example 239, 3-[4-(2,3-dihydroxy-propyl)-3,5-dimethyl-phenyl]-1-((1aS,5aR)-1,1,2-trimethyl-1,1a,5,5a-tetrahydro-3-thia-cyclopropa[a]pentalen-4-yl)-propan-1-one], the EC50 was 0.8 nM.

`CCc1cc(CCC(=O)c2sc(C)c3c2CC2C3C2(C)C)cc(C)c1OCC(O)CNC(=O)CO` (stereo not drawn) [Example 244]: the EC50 came out at 1.1 nM.
